Data: ChEMBL document CHEMBL1909046, “DrugMatrix in vitro pharmacology data”

Experiments:
[1] = biological target: Beta-3 adrenergic receptor (Homo sapiens, UniProt P13945); test: DRUGMATRIX: Adrenergic beta3 radioligand binding (ligand: [125I] Cyanopindolol); format: cell membranes, HEK293, Membrane; conditions: hek293; Not Active = under 50% inhibition at 10 µM
[2] = biological target: Aldo-keto reductase family 1 member B1 (Rattus norvegicus, UniProt P07943); test: biochemical; format: tissue-based, Lens of camera-type eye;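 further: inhibition of aldose reductase enzyme activity, measured with DL-glyceraldehyde as the substrate; in other assays of this panel Not Active means under 50% inhibition at 10 µM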
[3] = DRUGMATRIX: ATPase, Na+/K+ enzyme inhibition (substrate: ATP); format: tissue-based, Sus scrofa, Heart; conditions: Not Active = under 50% inhibition at 10 µM
[4] = biological target: 5-hydroxytryptamine receptor 4 (Cavia porcellus, UniProt O70528); format: cell membranes, Dunkin-Hartley, Striatum, Membrane; further: in other assays of this panel Not Active means under 50% inhibition at 10 µM
5-hydroxytryptamine receptor 4, sequence (O70528 whole entry): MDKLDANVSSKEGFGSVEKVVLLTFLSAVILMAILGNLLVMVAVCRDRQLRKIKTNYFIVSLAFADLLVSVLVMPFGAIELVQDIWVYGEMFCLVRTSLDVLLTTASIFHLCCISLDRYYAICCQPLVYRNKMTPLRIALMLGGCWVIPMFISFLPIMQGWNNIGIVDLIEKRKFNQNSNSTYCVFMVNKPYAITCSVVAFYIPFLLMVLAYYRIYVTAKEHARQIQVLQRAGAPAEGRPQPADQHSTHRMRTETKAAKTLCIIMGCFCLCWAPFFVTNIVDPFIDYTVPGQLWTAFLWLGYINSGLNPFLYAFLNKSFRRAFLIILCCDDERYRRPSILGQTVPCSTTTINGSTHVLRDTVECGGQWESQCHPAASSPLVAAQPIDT

[5] = DRUGMATRIX: Calcium Channel Type L, Phenylalkylamine radioligand binding (ligand: [3H] (-)-Desmethoxyverapamil (D-888)); format: cell membranes, Rattus norvegicus, Wistar, Brain, Membrane; conditions: Not Active = under 50% inhibition at 10 µM
[6] = DRUGMATRIX: Glutamate, AMPA radioligand binding (ligand: [3H] AMPA); format: cell membranes, Rattus norvegicus, Wistar, Cerebral cortex, Membrane; conditions: Not Active = under 50% inhibition at 10 µM
[7] = biological target: Matrix metalloproteinase-9 (Homo sapiens, UniProt P14780); format: cell-based;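 further: inhibition of isolated MMP-9 enzyme activity toward a synthetic peptide substrate, from the DrugMatrix protease screening panel; in other assays of this panel Not Active means under 50% inhibition at 10 µM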
Matrix metalloproteinase-9, sequence (P14780 whole entry): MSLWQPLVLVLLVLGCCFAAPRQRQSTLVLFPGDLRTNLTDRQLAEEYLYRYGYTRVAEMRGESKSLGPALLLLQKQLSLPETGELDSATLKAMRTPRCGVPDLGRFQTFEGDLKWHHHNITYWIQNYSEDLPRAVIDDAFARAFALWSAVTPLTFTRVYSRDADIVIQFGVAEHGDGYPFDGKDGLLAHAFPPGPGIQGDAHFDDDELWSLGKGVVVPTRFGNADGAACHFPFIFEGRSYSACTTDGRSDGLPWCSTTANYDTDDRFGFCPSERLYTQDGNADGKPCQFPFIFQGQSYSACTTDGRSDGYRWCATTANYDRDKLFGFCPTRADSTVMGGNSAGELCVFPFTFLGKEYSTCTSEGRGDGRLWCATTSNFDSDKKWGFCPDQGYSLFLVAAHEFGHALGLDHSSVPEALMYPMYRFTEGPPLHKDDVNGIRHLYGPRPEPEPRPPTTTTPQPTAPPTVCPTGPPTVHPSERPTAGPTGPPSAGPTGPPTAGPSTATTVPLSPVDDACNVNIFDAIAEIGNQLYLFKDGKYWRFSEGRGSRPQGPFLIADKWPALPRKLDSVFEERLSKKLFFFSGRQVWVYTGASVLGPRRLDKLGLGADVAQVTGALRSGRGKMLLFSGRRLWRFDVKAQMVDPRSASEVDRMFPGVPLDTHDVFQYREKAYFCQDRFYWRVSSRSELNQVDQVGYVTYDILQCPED

Beta-3 adrenergic receptor, sequence (P13945 whole entry): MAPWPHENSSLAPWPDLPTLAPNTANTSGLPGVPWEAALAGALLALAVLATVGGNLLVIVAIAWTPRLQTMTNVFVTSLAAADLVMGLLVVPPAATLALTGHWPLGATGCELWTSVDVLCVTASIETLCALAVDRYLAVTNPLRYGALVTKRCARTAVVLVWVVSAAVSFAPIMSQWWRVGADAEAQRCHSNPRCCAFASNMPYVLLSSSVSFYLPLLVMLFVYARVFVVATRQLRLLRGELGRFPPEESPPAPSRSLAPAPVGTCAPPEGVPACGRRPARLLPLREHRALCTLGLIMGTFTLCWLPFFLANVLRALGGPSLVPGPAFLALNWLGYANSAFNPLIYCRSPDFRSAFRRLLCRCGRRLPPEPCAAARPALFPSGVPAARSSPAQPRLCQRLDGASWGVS

C[C@]12CC[C@H]3[C@@H](CCC4=CC(=O)CC[C@@H]43)[C@@H]1CC[C@@H]2O [NANDROLONE]
Not Active: IC50 [1] | IC50 [2] | IC50 [3] | Ki [3] | IC50 [4] | IC50 [5] | Ki [5] | IC50 [6] | Ki [6] | IC50 [7]

CS(=O)(=O)Nc1ccc([N+](=O)[O-])cc1Oc1ccccc1 [NIMESULIDE]
Not Active: IC50 [1] | IC50 [2] | IC50 [3] | Ki [3] | IC50 [4] | IC50 [5] | Ki [5] | IC50 [6] | Ki [6] | IC50 [7]

CN1CCC(=C2c3ccccc3CC(=O)c3sccc32)CC1 [KETOTIFEN]
Not Active: IC50 [1] | IC50 [2] | IC50 [3] | Ki [3] | IC50 [4] | IC50 [5] | Ki [5] | IC50 [6] | Ki [6] | IC50 [7]

NC12CC3CC(CC(C3)C1)C2 [AMANTADINE]
Not Active: IC50 [1] | IC50 [2] | IC50 [3] | Ki [3] | IC50 [4] | IC50 [5] | Ki [5] | IC50 [6] | Ki [6] | IC50 [7]

NC(=O)N1c2ccccc2CC(=O)c2ccccc21 [OXCARBAZEPINE]
Not Active: IC50 [1] | IC50 [2] | IC50 [3] | Ki [3] | IC50 [4] | IC50 [5] | Ki [5] | IC50 [6] | Ki [6] | IC50 [7]
